Experimental data: patent US20130216579A1, “METHODS AND COMPOSTITIONS FOR GENE EDITING OF A PATHOGEN” (priority 2012, published 2013)

Tests used:
[1] = test system: ZFN 30414 (synthetic construct); assay: cell_activity; conditions: pair with 30415; K76I conversion 38/38, 28/28 and 31/31 in 106/1 with CQ selection; 10/40 clones in Dd2 without selection
[2] = test system: ZFN 30413 (synthetic construct); assay: cell_activity; conditions: pair with 30415; K76I conversion 29/29 and 25/25 in 106/1 with CQ selection; 2/36 clones in Dd2 without selection
[3] = test system: GC03^crt-Dd2 G9 and GC03^crt-Dd2 H6 parasite clones; assay: In vitro CQ IC50 of pfcrt allelic replacement clones vs GC03 parent; assay type: cell-based, P. falciparum
Procedure: To quantify the efficiency of pfcrt allelic replacement, clones were generated by limiting dilution and analyzed by PCR. We observed replacement events in 13/82 (15.9%) 106/1 clones and 4/83 (4.8%) GC03 clones (FIG. 3B).
(§1) We also confirmed the CQ resistance phenotype of two gene-edited lines, 106/1^13/15mut2 and 106/1^14/15mut1 (FIG. 4A). […] Parasitemia was determined by flow cytometry after a 72 h incubation with drug. Parasites were stained with 1.6 μM Mito Tracker® (Molecular probes, Invitrogen) and 2×Sybr® Green (Molecular probes, Invitrogen) in 1×PBS supplemented with 5% FBS as described. In vitro IC50 values were calculated by non-linear regression analysis and Mann-Whitney U tests were employed for statistical analysis.

[4] = test system: 106/1^13/15mut2 and 106/1^14/15mut1 parasite lines; assay: In vitro CQ IC50 of gene-edited 106/1 lines, parasitemia by flow cytometry after 72 h; assay type: cell-based, P. falciparum; conditions: lines 106/1^13/15mut2 and 106/1^14/15mut1, 72 h
Procedure: as §1

CQS strain 106/1 = assay: CQ exposure of non-transfected 106/1 cultures; assay type: cell-based, P. falciparum; conditions: 33 nM CQ, six independent non-transfected 106/1 cultures

Work on “CTGTTAAGGTCGACAAGGGAAAAAAAAA (double strand) [pfcrt 30414 target site]” yielded an activity [1] of 100%.

Work on “CTGTTAAGGTCGACAAGGGAAAAAAAAA (double strand) [pfcrt 30413 target site]” yielded an activity [2] of 100%.

`CCN(CC)CCCC(C)Nc1ccnc2cc(Cl)ccc12` (centres unmarked) [CQ, chloroquine] was tested, and the “shift in CQ IC50 values compared to the GC03 parent” value [3] was 4- to 5 fold, the “shift in CQ IC50 values relative to the unmodified 106/1 parent line” value [4] was 5-6 fold and the “parasite outcome under CQ exposure” value (CQS strain 106/1) was “yielded no parasites after 90 days”.
